Source: paper PMC8112869, “Therapeutic inhibition of keratinocyte TRPV3 sensory channel by local anesthetic dyclonine” (eLife, 2021)

Legend:
Assay type in all cases: cell-based
TRPV3 (G573C) = target: T1, TRPV3 (G573C) (Mus musculus, UniProt Q8K424, G573C); assay: Whole-cell currents of TRPV3 (G573C) expressed in T-Rex 293 cells
T1 construct: expressed in transfected cells; host or cells: T-Rex 293
Source text: (§1) The WT mouse TRPV3 (mTRPV3), human TRPV3 (hTRPV3), rat TRPV1, rat TRPV2, rat TRPM8, and mouse TRPA1 cDNAs were generously provided by Dr. Feng Qin (State University of New York at Buffalo, Buffalo, USA). The GFP-mTRPV3 WT and the mutants (mTRPV3-G573S and mTRPV3-G573C) in pcDNA4/TO vector were gifts from Dr. Michael X Zhu (The University of Texas Health Science Center at Houston, Houston, USA). The WT fTRPV3 was kindly provided by Dr. Makoto Tominaga (Department of Physiological Sciences, SOKENDAI, Okazaki, Japan). All mutations were made using the overlap-extension polymerase chain reaction method as previously described ([Tian et al., 2019]). The resulting mutations were then verified by DNA sequencing. […]
(§2) Conventional whole-cell and excised patch-clamp recording methods were used. […] For a subset of recordings, currents were amplified using an Axopatch 200B amplifier (Molecular Devices, Sunnyvale, CA) and recorded through a BNC-2090/MIO acquisition system (National Instruments, Austin, TX) using QStudio developed by Dr. Feng Qin at State University of New York at Buffalo. […] As determined by the conductance tests, the solution around a patch under study was fully controlled by the application of a flow rate of 100 μl/min or greater. […]

[1] = test system: mouse dorsal root ganglia (DRG) and trigeminal ganglia (TG) neurons; assay: Current-clamp recording of mouse DRG and TG neurons; conditions: dyclonine 10 μM
TRPV3 I644W = target: T2, TRPV3 I644W (Mus musculus, UniProt Q8K424, I644W); assay: Whole-cell recording of TRPV3 mutant I644W in HEK 293T cells; conditions: 2-APB (1 mM)-evoked, –60 mV, read-out: IC50 for inhibition of TRPV3 mutant
T2 construct: expressed in transfected cells; host or cells: HEK 293T
Source text: as §1, §2

TRPV3 L642A = target: T3, TRPV3 L642A (Mus musculus, UniProt Q8K424, L642A); assay: Whole-cell recording of TRPV3 mutant L642A in HEK 293T cells; conditions: 2-APB (1 mM)-evoked, –60 mV, read-out: IC50 for inhibition of TRPV3 mutant
T3 construct: expressed in transfected cells; host or cells: HEK 293T
Source text: as §1, §2

T1 sequence (Q8K424 whole entry G573C): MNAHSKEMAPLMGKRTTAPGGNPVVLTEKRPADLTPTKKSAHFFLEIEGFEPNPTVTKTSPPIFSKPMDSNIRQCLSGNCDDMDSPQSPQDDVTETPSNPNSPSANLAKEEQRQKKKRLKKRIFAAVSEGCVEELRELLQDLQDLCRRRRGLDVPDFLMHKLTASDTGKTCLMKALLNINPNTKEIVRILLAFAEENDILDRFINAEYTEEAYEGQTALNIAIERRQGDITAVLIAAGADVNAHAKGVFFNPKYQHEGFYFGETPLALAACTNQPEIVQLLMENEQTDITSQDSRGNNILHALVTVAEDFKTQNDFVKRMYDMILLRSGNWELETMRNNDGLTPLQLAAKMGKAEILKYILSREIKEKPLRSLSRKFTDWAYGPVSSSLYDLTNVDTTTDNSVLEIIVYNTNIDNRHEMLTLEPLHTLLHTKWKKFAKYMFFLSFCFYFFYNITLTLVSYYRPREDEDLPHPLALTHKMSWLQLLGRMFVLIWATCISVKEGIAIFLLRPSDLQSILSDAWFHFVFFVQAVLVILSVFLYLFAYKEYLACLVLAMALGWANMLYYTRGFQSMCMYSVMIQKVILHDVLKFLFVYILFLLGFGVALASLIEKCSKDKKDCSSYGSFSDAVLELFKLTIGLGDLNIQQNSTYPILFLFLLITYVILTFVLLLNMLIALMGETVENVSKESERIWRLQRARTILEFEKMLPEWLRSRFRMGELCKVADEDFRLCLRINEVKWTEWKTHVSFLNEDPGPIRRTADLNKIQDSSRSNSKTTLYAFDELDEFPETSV
T3 sequence (Q8K424 whole entry L642A): as the sequence (Q8K424 whole entry G573C) above, with C573G, L642A counted along it
T2 sequence (Q8K424 whole entry I644W): as the sequence (Q8K424 whole entry G573C) above, with C573G, I644W counted along it

Structure (SMILES): CCCCOc1ccc(C(=O)CCN2CCCCC2)cc1 [dyclonine]
- reduction of spontaneous activities (TRPV3 (G573C); 10 μM dyclonine, –60 mV, leak subtracted with 20 μM RR): 71% ± 2%
- 300 μM 2-APB-evoked responses, of control level (TRPV3 (G573C); presence of dyclonine): 11% ± 1%
- effect on electrophysiological responses ([1]; DRG and TG neurons): little effect
- resting membrane potential (RMP) ([1]; DRG neurons): –45 ± 0.9 mV
- resting membrane potential (RMP) ([1]; TG neurons): –47.2 ± 1.9 mV
- IC50 (TRPV3 I644W): 26.1 ± 2.8 µM
- IC50 (TRPV3 L642A): 0.25 ± 0.02 µM
